d = 2'-deoxy (DNA); r = 2'-OH (RNA)
How the values were obtained:
[1] = system: HLE, SNU-387 SNU-449, and Huh7; experiment: mRNA expression in hepatocellular cancer cells after CHIR99021 by real-time PCR; assay type: cell-based, human; settings: SNU-387, SNU-449, Huh7, CHIR99021 final concentration 5 μM
MCF7 = experiment: mRNA expression in MCF7 cells by real-time PCR; assay type: cell-based, human
Huh6 cells = experiment: mRNA expression in Huh6 cells by real-time PCR; assay type: cell-based, human; settings: as in mRNA expression of Axin2
Method: Next, the mechanism for regulating expression of GREB1 in hepatoblastoma by YAP and c-Met was investigated. […] However, in Huh6 cells and HepG2 cells, knockdown of YAP/TAZ had no effect on expression of GREB1 (see b of FIG. 13). Further, when Huh6 cells was treated with CHIR99021, or treated with XMU-MP1, which has an inhibitory effect on Mst1/2 kinase and is an activator of YAP, or treated with CHIR99021 and XMU-MP1 in combination, mRNA expression of GREB1 was suppressed as in mRNA expression of Axin2 (see c of FIG. 13).

[2] = system: mouse fetal liver cells (BMEL); experiment: mRNA expression in BMEL cells by real-time PCR; assay type: cell-based; settings: CHIR99021 final concentration 5 μM
HepG2 cells [3] = experiment: mRNA (real-time PCR) and protein (lysate probing) expression in HepG2 cells; assay type: cell-based, human
Method: (§1) Using RNAiMAX (Life Technologies/Thermo Fisher Scientific), HepG2 cells, Huh6 cells, Hep3B cells, JHH7 cells, and SKMEL28 cells were each transfected with each siRNA (10 nm). In experiments, the cells were used from 48 to 120 hours after transfection.

GREB1 = GREB1 expression in HepG2 cells after GREB1 siRNA or GREB1 ASO (cell lysates probed with anti-GREB1 antibody); assay type: cell-based, human; settings: siRNA 10 nm, lysate probing
Method: Phosphorothioated I5-mer antisense oligonucleotides (ASOs) containing AmNA monomers were prepared (synthesized by GeneDesign (Ibaraki, Japan)). In the present specification, “hGREB1-6424-AmNA (15)” is sometimes simply referred to as “ASO-6424” or “GREB1 ASO-6424”. Similar abbreviations are used for describing other ASOs. Using RNAiMAX (Invitrogen, Carlsbad, Calif., USA), HepG2 or COLO679 cells were transfected with 10 nM of ASOs. In experiments, the cells were used from 36 to 48 hours after transfection.
as §1
As reported previously, knockdown of β-catenin decreased HepG2 cell proliferation (see a of FIG. 3). […] Thus, to elucidate the role of GREB1 in HepG2 cells, knockdown of GREB1 was carried out using two different siRNAs.
Next, HepG2 cells were transfected with control ASO or each of the above-described GREB1 ASOs, cultured in a medium containing 10% FBS for 2 days, and the cell lysates were probed with anti-GREB1 antibody and anti-HSP90 antibody.

HepG2 cells [4] = experiment: Cell viability by propidium iodide and Hoechst33342 staining; assay type: cell-based, human; settings: medium without Z-VAD, 0.1% FBS, 2 days; PI and Hoechst33342
Method: Further, HepG2 cells were transfected with control siRNA or siRNAs (GREB1 #1 siRNA and GREB1 #2 siRNA), cultured in media (caspase inhibitor Z-VAD was contained in one condition, and not contained in the other condition) containing 0.1% FBS for 2 days, stained with propidium iodide (PI, […]) and Hoechst33342 (nucleus), and the cell viability was evaluated.
Further, HepG2 cells transfected with control siRNA, GREB1 siRNA (GREB1 #2 siRNA), p15 siRNA, or siRNA of GREB1 (GREB1 #2 siRNA) and siRNA of p15 in combination were cultured in media (caspase inhibitor Z-VAD was contained in one condition, and not contained in the other condition) containing 0.1% FBS for 2 days, stained with propidium iodide (PI) and Hoechst33342, and the cell viability was calculated.

HepG2 cells [5] = experiment: Cell proliferation assay, two-dimensional culture (plastic dish), Cyquant; assay type: cell-based, human
Method: Cells were seeded on a plate at 1.0×10^4 cells/mL, and, after 12 hours, the medium was replaced with a medium containing 10% serum. While the cell number was counted every 48 hours, the cells were cultured up to 10 days. The measurement of the cell number was performed using Cyquant NF assays (Life Technologies/Thermo Fisher Scientific) according to protocols recommended by the manufacturer.
Mock HepG2 cells (having a vector only, containing no GREB1) or GREB1-transduced HepG2 cells were transfected with control siRNA or two different types of siRNA (GREB1 #1 siRNA and GREB1 #2 siRNA), then two-dimensional culture (plastic dish culture) was performed, and a relative cell number was calculated by Cyquant assay overtime. As a result, in GREB1 knockdown, proliferative capacity of HepG2 cells in two-dimensional culture was reduced. However, when GREB1-transduced HepG2 cells were transfected with siRNAs against GREB1 (GREB1 #1 siRNA/GREB1 and GREB1 #2 siRNA/GREB1), the proliferative capacity of HepG2 cells was not affected (see a of FIG. 4).

liver tumors of BYM mice = experiment: Tumorigenesis by HTVi (hydrodynamic tail vein injection), BYM mice with GREB1 shRNA; assay type: in vivo
Method: In the presence of Greb1 shRNA #3 (SEQ ID NO: 8) (20 μg) or control, and pLIVE-SB13 (8 μg), pT2BH-YAPS127A (20 μg), pT2BH-ΔN90 β-catenin-mutLuc3 (20 μg), pT3-EF1a-cMET (20 μg), and GFP2ALuc were diluted in 2.5 ml of physiological saline, and injected into tail veins of 8- to 9-week old male wild-type C57BL6/N mice within 5 to 7 seconds. Livers of the mice were collected at a predetermined time after injection (or at occurrence of the tumor), and various parameters associated with tumorigenesis were assessed. Specifically, this assessment was performed according to techniques described in Tao, J. et al., (2014). Gastroenterology 147, 690-701 and Tward, A. D. et al, (2007). Proc Natl Acad Sci USA 104, 14771-14776. In this evaluation, ΔN90 β-catenin refers to a β-catenin mutant in which amino acids at positions 1 to 90 of human ft-catenin were deleted, and YAPS127A refers to a YAP mutant in which serine at positon 127 of YAP was substituted by alanine.
Further, ΔN90 β-catenin, YapS127A, and c-Met were administered to mice together with GREB1 shRNA, and the livers were collected 7 to 8 weeks after administration. As a result, in mice transduced with ΔN90 β-catenin, YAPS127A, and c-Met (BYM mice, control), a plurality of nodules were observed on the entire surfaces of the livers (see a of FIG. 14). On the other hand, in mice transduced with GREB1 shRNA together with ΔN90 β-catenin, YAPS127A, and c-Met (BYM GREB1 KD mice), the nodules in the liver were suppressed (see a of FIG. 14).

[6] = CHIR99021 in the presence or absence of ICI-182,786
[7] = BYM+ GREB1 shRNA mouse vs BYM mouse without knockdown
[8] = tumor nodules of BYM GREB1 KD mice K2 and K4, real-time PCR

Compound: Cc1c[nH]c(-c2cnc(NCCNc3ccc(C#N)cn3)nc2-c2ccc(Cl)cc2Cl)n1 [CHIR99021]
- expression of Axin2 [1]: increased
- expression of GREB1 [1]: not increased
- expression of Axin2 (MCF7; [6]): increased
- expression of GREB1 (MCF7; [6]): not increased
- mRNA expression of GREB1 (Huh6 cells): suppressed
- expression of GREB1 [2]: increased

Compound: C[C@]12CC[C@@H]3c4ccc(O)cc4C[C@@H](CCCCCCCCC[S+]([O-])CCCC(F)(F)C(F)(F)F)[C@H]3[C@@H]1CC[C@@H]2O (stereo partly drawn) [ICI-182,786]
- expression of GREB1 (MCF7; ICI-182,786 treatment, real-time PCR): dramatically decreased
- mRNA expression of PAI-1 (MCF7; estrogen receptor antagonist treatment): suppresses
- expression level of GREB1 mRNA (HepG2 cells [3]; HepG2 cells treated for 48 hours, real-time PCR): not affected

Compound: CN1C(=O)c2sccc2N(C)c2nc(Nc3ccc(S(N)(=O)=O)cc3)ncc21 [XMU-MP1]
- mRNA expression of GREB1 (Huh6 cells): suppressed

Compound: GREB1 #1 siRNA: siRNA against human GREB1; sense 5′-GCCAUUCGUGUGCUUCCAUTT-3′ (SEQ ID NO: 4), antisense SEQ ID NO: 5 (antisense AUGGAAGCACACGAAUGGCTT; sugars from the 5' end r19 d2, backbone not given here)
- knockdown of GREB1 (anti-GREB1 antibody) (GREB1): knocked down
- cell death of HepG2 cells (HepG2 cells [4]): elevated cell death
- proliferative capacity of HepG2 cells in two-dimensional culture (HepG2 cells [5]; GREB1-transduced HepG2 cells): not affected
- proliferative capacity of HepG2 cells in two-dimensional culture (HepG2 cells [5]; mock HepG2 cells, relative cell number by Cyquant over time): reduced
- amounts of cleaved caspase 3 and PARP1 (HepG2 cells [3]; HepG2 cells, 0.1% FBS for 2 days, lysate probing): increased
- expressions of β-catenin and Axin2 (HepG2 cells [3]; HepG2 cells, GREB1 knockdown, lysate probing): no effect
- expression of cell cycle regulators cyclinA, cyclinB, phosphorylated histone H3 (HepG2 cells [3]; HepG2 cells, medium containing 1% FBS for 1 day, lysate probing): decreases

Compound: GREB1 shRNA: shRNA against mouse Greb1, encoding DNA SEQ ID NO: 8, given as pT2BH-GFP2ALuc plasmid by hydrodynamic injection (DNA CCGGCTACTTTGTTAGCAATGATATCTCGAGATATCATTGCTAACAAAGTAGTTTTTTG)
- incidence rate of tumorigenesis (liver tumors of BYM mice; BYM GREB1 KD mice K1 to K6): decreased
- mice in which any tumor was not observed (liver tumors of BYM mice; BYM GREB1 KD mice K1 to K6): 4 out of the 6
- nodules in the liver (liver tumors of BYM mice; BYM mice, livers collected 7 to 8 weeks after administration, shRNA plasmid 20 μg HTVi): suppressed
- serum AFP level (liver tumors of BYM mice; [7]): dramatically decreased
- weight of the liver (liver tumors of BYM mice; [7]): dramatically decreased
- GREB1 mRNA expression levels in tumors (liver tumors of BYM mice; [8]): low
- expression levels of DLK1 and TACSTD1 in tumors (liver tumors of BYM mice; [8]): the same as those of the GREB1 low group of BYM mice
